Values after ≈ are worked out from the molar mass of the structure shown. Values joined by “and” are separate entries in the source; they are usually repeats but may differ in a detail not shown here. Equal entries are not always repeated. Where two headings read alike, the source gives them in different places.
Tests used:
[1] = system: A. baumannii LMG01041; assay type: cell-based, Acinetobacter baumannii
Description: (§1) The test of synergistic effect was processed by conducting standard chequerboard broth microdilution assays. Nisin (Drug X) was loaded two fold serially diluted from row 1 to 10 in X-axis while GNPs (Drug Y) were loaded in eight two fold serially diluted concentrations from line A to H in Y-axis (FIG. 1). The original concentrations of peptides were MICs of each. Row 11 are used as growth control with no peptide was included, while row 12 with MHB medium-only wells was included as a sterility control as referred before. 50 uL fresh bacterial suspension was added to well 1-11 and final volume of each well on the plate is 100 uL.
(§2) To determine whether the combination therapy is additive, synergistic or antagonistic, fractional inhibitory concentration (FIC) indices were calculated. FICI=FICa+FICb=MICac/MICa+MICbc/MICb. The MICa/MICb is the MIC of compound A/B alone. MICac is the MIC of compound A in combination with compound B and MICbc is the MIC of compound B when it was combination with compound A. […]. FICa is FIC of compound A while FICb is FIC of compound B. The FICI is interpreted as follows: synergistic, FICI≤0.5; additive, 0.5<FICI<1; indifferent, 1<FICI<2; antagonistic, FICI>2.

[2] = system: P. aeruginosa LMG 6395; test: microbe, parasite or virus in culture; assay type: cell-based, Pseudomonas aeruginosa; details: P. aeruginosa LMG 6395
Protocol: (§3) Escherichia coli, Klebsiella pneumoniae, Pseudomonas aeruginosa, Acinetobacter baumannii, Enterobacter aerogenes were grown in Luria-Bertani (LB) broth shaken (200 rpm) or on LB agar at 37° C. […] MICs tests were performed in duplicate by a liquid growth inhibition microdilution assays in sterilized polypropylene microtiter plates according to Wiegand and […] [27]. […] The suspension was diluted in a ratio of 1:100 using Mueller Hinton Broth (MHB) and the final inoculum is 5*10^5 CFU/mL. […] The antimicrobials were diluted serially by 1/2 one by one and 50 uL diluted bacterial suspension were added to each well to make the final volume to be 100 uL. Growth control was accomplished by remove 10 uL from well 11 and dilute 1000 times to plate 1/10 suspension on the solid medium. […] The number of colonies on the control agar plate should be around 50 to ensure the concentration of the inoculum and the effectiveness of the experiment. The lowest concentration of the antimicrobials that inhibits visible growth of the indicator is identified as MIC.

[3] = system: P. aeruginosa LMG 6395; assay type: cell-based, Pseudomonas aeruginosa
Description: as §1, §2

[4] = system: A. baumannii LMG01041; test: microbe, parasite or virus in culture; assay type: cell-based, Acinetobacter baumannii
Protocol: as §3

[5] = system: E. coli LMG15862; test: microbe, parasite or virus in culture; assay type: cell-based, Escherichia coli
Protocol: as §3

[6] = system: L. lactis MG1363
[7] = system: K. pneumoniae LMG20218; assay type: cell-based, Klebsiella pneumoniae
Description: as §1, §2

[8] = system: E. aerogenes LMG 02094
Protocol: (§4) The test of synergistic effect was processed by conducting standard chequerboard broth microdilution assays. […] Row 11 are used as growth control with no peptide was included, while row 12 with MHB medium-only wells was included as a sterility control as referred before. 50 uL fresh bacterial suspension was added to well 1-11 and final volume of each well on the plate is 100 uL.
(§5) The test of synergistic effect was processed as method 1.4.
as §2

[9] = system: K. pneumoniae LMG20218
Protocol: as §4, §5, §2

[10] = system: E. coli LMG15862
Protocol: as §4, §5, §2

[11] = system: A. baumannii LMG01041
Protocol: as §4, §5, §2

[12] = system: P. aeruginosa LMG 6395
Protocol: as §4, §5, §2

[13] = system: E. aerogenes LMG 02094; assay type: cell-based, Enterobacter aerogenes
Description: as §1, §2

[14] = system: K. pneumoniae LMG20218; test: microbe, parasite or virus in culture; assay type: cell-based, Klebsiella pneumoniae; details: K. pneumoniae LMG20218
Protocol: as §3

[15] = system: E. coli LMG15862; assay type: cell-based, Escherichia coli
Description: as §1, §2

[16] = system: E. aerogenes LMG 02094; test: microbe, parasite or virus in culture; assay type: cell-based, Enterobacter aerogenes
Protocol: as §3

[17] = system: Gram-negative pathogens; assay type: cell-based; details: L-form GNPs alone; five Gram-negative pathogens
Protocol: as §3

[18] = system: human red blood cells (HRBc); test: Hemolytic test; details: red cells of human, 1 h
Protocol: Fresh human red blood cells (HRBc) were used for the hemolytic tests. After incubation with different concentrations of test compounds at 37° C. for 1 hour, the absorbance of the supernatant were measured.

[19] = system: Pseudomonas aeruginosa B1954, clinical isolate; test: microbe, parasite or virus in culture; details: B1954, clinical isolate
Protocol: (§6) Testing was performed according to CLSI (Clinical Laboratory Standards Institute) guidelines. Read out of the study was determination of MIC—minimal inhibitory concentration expressed in μg/mL.
(§7) Out of these PBS solutions, 76.8 μL was transferred to 1423.2 μL of MH media in deep well for testing compound alone. […] Out of these working solutions 100 μL were transferred to wells in the third column of 96-well assay plates. Assay plates were previously filled with 50 μL of MH media in all wells except for the wells in the third column.
(§8) Microorganisms used were all revived from skim milk storage at −70° C. by plating them on MH agar plates. The following day a single colony of each microorganism was again streaked on fresh agar plates. The next day, using direct colony suspension method, broth solutions that achieve turbidity equivalent to 0.5 McFarland standard for each microorganism were prepared. […] Out of these suspensions, actual inoculums were prepared by diluting them 100× with MH media giving final microorganism count of 2-8×10^5 CFU/mL. For each strain of microorganisms, 20 mL of these inoculum solutions were prepared. From the second to the twelfth column of 96-well plates, 50 μL of these solutions were transferred per well. To the first column, 50 μL per well of pure growth media was added. In this manner the first column was used as sterility control of media used, the second column was used as control of microorganism's growth and the rest of the plate was used for MIC determination. All plates were incubated for 16-24 h at 37° C.
(§9) MIC value was determined by visual inspection of bacterial growth within 96-well plates. The first column in which there was no visible growth of bacteria was determined as MIC value for peptide or combination tested in that particular row.

[20] = system: Klebsiella pneumoniae ATCC BAA-2524; test: microbe, parasite or virus in culture; details: ATCC BAA-2524
Protocol: as §6, §7, §8, §9

[21] = system: Escherichia coli ATCC BAA-2452; test: microbe, parasite or virus in culture; details: ATCC BAA-2452
Protocol: as §6, §7, §8, §9

[22] = system: Acinetobacter baumannii B2026, clinical isolate; test: microbe, parasite or virus in culture; details: B2026, clinical isolate
Protocol: as §6, §7, §8, §9

[23] = system: Pseudomonas aeruginosa ATCC BAA-2108; test: microbe, parasite or virus in culture; details: ATCC BAA-2108
Protocol: as §6, §7, §8, §9

[24] = system: Acinetobacter baumannii ATCC BAA-1605; test: microbe, parasite or virus in culture; details: ATCC BAA-1605
Protocol: as §6, §7, §8, §9

[25] = system: HEK293 cells; test: in vitro
Protocol: (§10) ATP levels were measured by adding 50 μL of CellTiter-Glo reagent to each well and after 5 minutes of incubation luminescence was measured with SpectraMax i3.
(§11) 96-well plates were seeded with HEK293 cells at concentration of 30,000 cells per well in 100 μL of DMEM growth media supplemented with 1% NEAA and 10% FBS. Border wells were filled with 100 μL of sterile PBS. The next day compounds were added to cells. Compounds were first 2× diluted in 96-well V-bottom plate in PBS. After that compounds were mixed with media in 96-deep-well plate for final concentrations. Growth media from 3 plates was aspirated and replaced with 100 μL of prepared compounds. Compounds were tested in duplicate. ATP levels were measured by adding 50 μL of CellTiter-Glo reagent to each well and after 5 minutes of incubation luminescence was measured with SpectraMax i3. […] The potential effects were then calculated and presented as IC50 values (μg/mL).

[26] = in vitro; details: human
Protocol: as §10, §11

[27] = MIC of GNP when used with the MICac concentration of nisin
[28] = MIC of nisin in combination with the GNP at the MICbc concentration
[29] = MIC of GNP in combination with vancomycin at the MICac concentration
[30] = MIC of vancomycin in combination with the GNP at the MICbc concentration

CC[C@H](C)[C@H](NC(=O)[C@H](CCCNC(=N)N)NC(=O)[C@H](CCCNC(=N)N)NC(=O)[C@H](Cc1ccccc1)NC(=O)[C@H](CC(C)C)NC(=O)[C@H](CCCNC(=N)N)NC(=O)[C@@H](N)CCCNC(=N)N)C(=O)N[C@@H](CC(C)C)C(=O)N[C@@H](CCCNC(=N)N)C(=O)N[C@@H](Cc1c[nH]c2ccccc12)C(=O)N[C@@H](CC(C)C)C(N)=O [GNP-6]
MICb ([1]; MIC of GNP alone): 2 µM | MICbc [1, 27]: 0.5 µM | MICac [1, 28]: 0.75 µM | FICI ([1]; nisin + GNP): 0.375 | MICb (MIC of GNP alone) ([2]; L-form GNP, Table 7): 3 µM | MIC value of antimicrobial compounds alone [2]: 3 µM | MIC value ([2]; alone): 3 µM (≈ 4.75 µg/mL) | MICb ([3]; MIC of GNP alone): 3 µM | MICbc [3, 27]: 0.75 µM | MICac [3, 28]: 4.5 µM | FICI ([3]; nisin + GNP): 0.375 | MIC value of antimicrobial compounds alone ([4]; A. baumannii LMG01041): 2 µM | MICb (MIC of GNP alone) ([4]; L-form GNP, A. baumannii LMG01041, Table 7): 2 µM | MIC value ([4]; alone, A. baumannii LMG01041): 2 µM (≈ 3.17 µg/mL) | MIC value of antimicrobial compounds alone ([5]; E. coli LMG15862): 2 µM | MICb (GNP concentration when used alone) ([5]; L-form GNP, E. coli LMG15862, Table 6): 2 µM | MIC value ([5]; alone, E. coli LMG15862): 2 µM (≈ 3.17 µg/mL) | MIC value of antimicrobial compounds alone ([6]; L. lactis MG1363): 1 µM | MICb ([7]; MIC of GNP alone): 4 µM | MICbc [7, 27]: 0.5 µM | MICac [7, 28]: 3 µM | FICI ([7]; nisin + GNP): 0.188 | MICb ([8]; MIC of GNP alone): 8 µM | MICbc [8, 29]: 2 µM | MICac [8, 30]: 8 µM | FICI ([8]; vancomycin + GNP): 0.291 | MICb ([9]; MIC of GNP alone): 4 µM | MICbc [9, 29]: 0.25 µM | MICac [9, 30]: 32 µM and 16 µM | FICI ([9]; vancomycin + GNP): 0.313 and 0.25 and 0.5 | MICb ([10]; MIC of GNP alone): 2 µM | MICbc [10, 29]: 0.5 µM | MICac [10, 30]: 16 µM | FICI ([10]; vancomycin + GNP): 0.5 | MICb ([11]; MIC of GNP alone): 2 µM | MICbc [11, 29]: 0.5 µM and 1 µM | MICac [11, 30]: 8 µM and 4 µM | FICI ([11]; vancomycin + GNP): 0.5 and 0.625 | MICb ([12]; MIC of GNP alone): 3 µM | MICbc [12, 29]: 1.5 µM | MICac [12, 30]: 32 µM | FICI ([12]; vancomycin + GNP): 0.75 | MICb ([13]; MIC of GNP alone): 8 µM | MICbc [13, 27]: 1 µM | MICac [13, 28]: 1 µM | FICI ([13]; nisin + GNP): 0.156 | MIC value of antimicrobial compounds alone [14]: 4 µM | MICb (MIC of GNP alone) ([14]; L-form GNP, Table 7): 4 µM | MIC value ([14]; alone): 4 µM (≈ 6.34 µg/mL) | MICb ([15]; MIC of GNP alone): 2 µM | MICbc [15, 27]: 0.5 µM | MICac [15, 28]: 1.5 µM | FICI ([15]; nisin + GNP): 0.375 | MIC value of antimicrobial compounds alone ([16]; E. aerogenes LMG 02094): 8 µM | MICb (MIC of GNP alone) ([16]; L-form GNP, E. aerogenes LMG 02094, Table 7): 8 µM | MIC value ([16]; alone, E. aerogenes LMG 02094): 8 µM (≈ 12.7 µg/mL) | Activity ranking amongst all the GNPs [17]: most potent

CC[C@@H](C)[C@@H](NC(=O)[C@H](N)CCCNC(=N)N)C(=O)N[C@@H](C(=O)N[C@H](CCC(N)=O)C(=O)N[C@H](CCCNC(=N)N)C(=O)N[C@@H](C(=O)N[C@H](CCCCN)C(=O)N[C@H](CCCCN)C(=O)N[C@H](Cc1c[nH]c2ccccc12)C(=O)N[C@H](CC(C)C)C(=O)N[C@H](CCCNC(=N)N)C(N)=O)[C@H](C)CC)C(C)C [GNP-D8]
MIC value ([4]; LMG01041): 8 µM (≈ 12 µg/mL) | HC50 (hemolytic activity) [18]: >200 µM | MIC value ([5]; LMG15862): 4 µM (≈ 5.98 µg/mL) | MIC value of antimicrobial compounds alone ([6]; MG1363): 16 µM | MIC value [19]: 85.62 µM | MIC value [20]: >85.62 µM | MIC value [21]: 5.35 µM | MIC value [22]: 10.7 µM | MIC value [23]: >85.62 µM | MIC value [24]: 10.7 µM | Effect on ATP levels [25]: do not affect the ATP levels | IC50 [26]: ≥ 42.8 µM | MIC value ([16]; LMG 02094): 32 µM (≈ 47.8 µg/mL)

— US20200368315A1, “ANTIMICROBIAL PEPTIDES AND ADMIXTURES THEREOF SHOWING ANTIMICROBIAL ACTIVITY AGAINST GRAM-NEGATIVE PATHOGENS” (priority 2017, published 2020)
